Consider six compounds from publication PMC11618438 (ACS Omega, 2024).

Some results are limits rather than exact numbers.

In test [1] the target is T1, MT1 (Homo sapiens, UniProt P48039). As to the kind of experiment: ERK activation. It counts as cell-based. Conditions: for EC50: hMT1 cells, 5 min stimulation.
Test [2] addresses T1, MT1. Description: β-arrestin2 recruitment BRET assay in HEK293 cells. The note with it: for EC50: hMT1 HEK293 cells, BRET; for effect on ß-arrestin recruitment: Figure S2C. The class given is cell-based.
Test [3] deals with T1, MT1. Description: cAMP accumulation assay, forskolin-stimulated HEK293 cells. The class given is cell-based. Conditions: for EC50: hMT1 HEK293 cells, 1 μM forskolin.
Test [4] concerns the target T1, MT1. Description: 2-[125I]-iodomelatonin competition binding assay, membranes of HEK293 cells. The note with it: for Ki: 2-[125I]MLT binding assay, hMT1 stably expressed in HEK293 cells; for drop in binding affinity: MT1, relative to 19c.
A further test has as its system MDA-MB-231. Description: Cell survival by MTT assay, MDA-MB-231. It counts as cell-based. Conditions: IC50 MLT+TAM versus IC50 compound.
In another test the target is T2, human ERα (Homo sapiens, UniProt P03372).
T2 sequence (P03372 1-595): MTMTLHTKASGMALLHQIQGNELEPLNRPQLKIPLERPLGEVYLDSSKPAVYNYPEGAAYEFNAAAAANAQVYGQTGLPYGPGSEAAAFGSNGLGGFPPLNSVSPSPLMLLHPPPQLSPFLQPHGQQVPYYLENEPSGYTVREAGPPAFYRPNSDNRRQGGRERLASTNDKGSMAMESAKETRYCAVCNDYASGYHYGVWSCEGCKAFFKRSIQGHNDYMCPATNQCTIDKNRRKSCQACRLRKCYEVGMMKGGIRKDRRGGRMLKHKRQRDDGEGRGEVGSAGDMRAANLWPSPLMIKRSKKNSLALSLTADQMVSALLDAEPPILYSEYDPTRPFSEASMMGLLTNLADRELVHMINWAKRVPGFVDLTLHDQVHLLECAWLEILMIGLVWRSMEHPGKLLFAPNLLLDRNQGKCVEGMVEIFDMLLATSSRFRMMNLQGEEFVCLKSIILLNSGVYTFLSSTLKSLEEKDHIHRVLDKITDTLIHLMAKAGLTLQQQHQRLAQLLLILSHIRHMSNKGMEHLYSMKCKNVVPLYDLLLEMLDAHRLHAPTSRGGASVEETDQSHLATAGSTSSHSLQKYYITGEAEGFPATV
As to the kind of experiment: cell-based.

The subject of test [5] is human MT1 receptors expressed in CHO cells. The note with it: [125I]-iodomelatonin; cited from earlier work.
In a further test the test system is HT-1080. Description: Cell survival by MTT assay, HT-1080. The class given is cell-based. Conditions: IC50 MLT+TAM versus IC50 compound.
[6] abbreviates: pEC50 ± S.E.M., ß-arrestin recruitment.
[7] abbreviates: pEC50 ± S.E.M., cAMP accumulation.

T1 sequence (P48039 whole entry): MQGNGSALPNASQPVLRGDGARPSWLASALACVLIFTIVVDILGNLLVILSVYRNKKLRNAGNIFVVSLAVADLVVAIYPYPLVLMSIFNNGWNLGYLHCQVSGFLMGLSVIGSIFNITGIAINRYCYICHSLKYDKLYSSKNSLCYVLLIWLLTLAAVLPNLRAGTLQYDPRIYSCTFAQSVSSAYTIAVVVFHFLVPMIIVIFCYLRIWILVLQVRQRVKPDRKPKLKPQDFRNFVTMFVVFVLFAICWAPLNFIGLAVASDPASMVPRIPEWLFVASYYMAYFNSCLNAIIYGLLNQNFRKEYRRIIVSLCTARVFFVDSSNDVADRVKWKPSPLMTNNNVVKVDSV

Regarding `CC/C(=C(\c1ccccc1)c1ccc(OCCN(C)CCCCCC(=O)NCCCOc2ccc3[nH]cc(CCNC(C)=O)c3c2)cc1)c1ccccc1` [16b, (Z)-N-(3-((3-(2-Acetamidoethyl)-1H-indol-5-yl)oxy)propyl)-6-((2-(4-(1,2-diphenylbut-1-en-1-yl)phenoxy)ethyl)(methyl)amino)hexanamide], the EC50 at MT1 [1] (EC50, ERK activation) was 0.016 µM; at MT1 [1] (pEC50 ± S.E.M., ERK activation), 0.0138 µM; on MT1 [2] (EC50, ß-arrestin recruitment), 0.999 µM; on MT1 [2] (setting [6]), 0.955 µM; on MT1 [3] (EC50, cAMP accumulation), 0.987 µM; on MT1 [3] (setting [7]) it was 0.871 µM. The Ki is 0.022 µM on MT1 [4] (Ki) and 0.02 µM on MT1 [4] (pKi ± S.E.M.).

As for `CC/C(=C(\c1ccccc1)c1ccc(OCCN(C)C(=O)CCCCOc2ccc3[nH]cc(CCNC(C)=O)c3c2)cc1)c1ccccc1` [19a, (Z)-5-((3-(2-Acetamidoethyl)-1H-indol-5-yl)oxy)-N-(2-(4-(1,2-diphenylbut-1-en-1-yl)phenoxy)ethyl)-N-methylpentanamide], the “effect on ERK activation” value on MT1 [1] (cells expressing MT1) is “no effect”. Also, on MT1 [2], the “effect on ß-arrestin recruitment” value is reported as “no effect”. The EC50 on MT1 [2] (setting [6]) is 0.977 µM; on MT1 [3] (EC50, cAMP accumulation), greater than 10 µM; on MT1 [3] (setting [7]) it was 8.91 µM. In the test on MDA-MB-231, the “sensitization versus combined melatonin and tamoxifen treatment” value is 3.0 fold. The Ki on MT1 [4] (Ki) was greater than 10 µM. Besides, the “drop in binding affinity” value on MT1 [4] was > 1,000 fold. The compound further came in with an IC50 at human ERα of roughly 0.1 µM.

For `CC/C(=C(\c1ccccc1)c1ccc(OCCN(C)C(=O)CCCCCCOc2ccc3[nH]cc(CCNC(C)=O)c3c2)cc1)c1ccccc1` [19c, (Z)-7-((3-(2-Acetamidoethyl)-1H-indol-5-yl)oxy)-N-(2-(4-(1,2-diphenylbut-1-en-1-yl)phenoxy)ethyl)-N-methylheptanamide], the EC50 on MT1 [1] (EC50, ERK activation) amounted to 0.161 µM; at MT1 [1] (pEC50 ± S.E.M., ERK activation), 0.0617 µM; at MT1 [2] (EC50, ß-arrestin recruitment) it was 2.23 µM; at MT1 [2] (setting [6]) it was 1.07 µM; on MT1 [3] (setting [7]), 0.209 µM. Moreover, the “right shift of cAMP EC50 compared to Ki” value on MT1 [3] (MT1) came out at 2 logs. The Ki on MT1 [4] (Ki) was found to be 0.0028 µM; on MT1 [4] (pKi ± S.E.M.), 0.00263 µM. For the same compound, the IC50 against human ERα was roughly 0.1 µM.

Turning to `COc1ccc2[nH]cc(CCNC(C)=O)c2c1` [MLT, melatonin], the “affinity, competition binding” value in test [5] is recorded as 8.6 nM.

On to `CC/C(=C(\c1ccccc1)c1ccc(OCCN(C)C(=O)CCCCCOc2ccc3[nH]cc(CCNC(C)=O)c3c2)cc1)c1ccccc1` [compound 19b, (Z)-6-((3-(2-Acetamidoethyl)-1H-indol-5-yl)oxy)-N-(2-(4-(1,2-diphenylbut-1-en-1-yl)phenoxy)ethyl)-N-methylhexanamide], for which the EC50 on MT1 [1] (EC50, ERK activation) came out at 0.178 µM; at MT1 [1] (pEC50 ± S.E.M., ERK activation), 0.12 µM; at MT1 [2] (EC50, ß-arrestin recruitment), 4.66 µM; on MT1 [2] (setting [6]) it was 3.89 µM; on MT1 [3] (EC50, cAMP accumulation), 0.389 µM; on MT1 [3] (setting [7]), 0.372 µM. Further, the Ki on MT1 [4] (Ki) was found to be 3.15 µM; at MT1 [4] (pKi ± S.E.M.) it was 2.95 µM. The “drop in binding affinity” value on MT1 [4] is on record as > 1,000 fold.

On to `CC/C(=C(\c1ccccc1)c1ccc(OCCN(C)CCOCCOCCOc2ccc3[nH]cc(CCNC(C)=O)c3c2)cc1)c1ccccc1` [compound 21, (Z)-N-(2-(5-(2-(2-(2-((2-(4-(1,2-Diphenylbut-1-en-1-yl)phenoxy)ethyl)(methyl)amino)ethoxy)ethoxy)ethoxy)-1H-indol-3-yl)ethyl)acetamide], for which the EC50 on MT1 [1] (EC50, ERK activation) is 0.036 µM; at MT1 [1] (pEC50 ± S.E.M., ERK activation), 0.0282 µM; on MT1 [2] (EC50, ß-arrestin recruitment), 0.197 µM; at MT1 [2] (setting [6]), 0.138 µM; on MT1 [3] (EC50, cAMP accumulation), 0.0743 µM; at MT1 [3] (setting [7]), 0.0631 µM. Further, the “sensitization versus combined melatonin and tamoxifen treatment” value with HT-1080 worked out at 3.6 fold. Further, the “effect on ß-arrestin recruitment” value on MT1 [2] is on record as “clear partial effect”. Besides, the Ki on MT1 [4] (Ki) stood at 0.0065 µM; at MT1 [4] (pKi ± S.E.M.), 0.00617 µM.
